These results are taken from ChEMBL document CHEMBL5465560, “Selectivity Literature for EUbOPEN Chemogenomic Library” (2024).

The target of assay [1] is T1, Mitogen-activated protein kinase kinase kinase 2 (Homo sapiens) (UniProt Q9Y2U5).
T1 sequence (whole entry): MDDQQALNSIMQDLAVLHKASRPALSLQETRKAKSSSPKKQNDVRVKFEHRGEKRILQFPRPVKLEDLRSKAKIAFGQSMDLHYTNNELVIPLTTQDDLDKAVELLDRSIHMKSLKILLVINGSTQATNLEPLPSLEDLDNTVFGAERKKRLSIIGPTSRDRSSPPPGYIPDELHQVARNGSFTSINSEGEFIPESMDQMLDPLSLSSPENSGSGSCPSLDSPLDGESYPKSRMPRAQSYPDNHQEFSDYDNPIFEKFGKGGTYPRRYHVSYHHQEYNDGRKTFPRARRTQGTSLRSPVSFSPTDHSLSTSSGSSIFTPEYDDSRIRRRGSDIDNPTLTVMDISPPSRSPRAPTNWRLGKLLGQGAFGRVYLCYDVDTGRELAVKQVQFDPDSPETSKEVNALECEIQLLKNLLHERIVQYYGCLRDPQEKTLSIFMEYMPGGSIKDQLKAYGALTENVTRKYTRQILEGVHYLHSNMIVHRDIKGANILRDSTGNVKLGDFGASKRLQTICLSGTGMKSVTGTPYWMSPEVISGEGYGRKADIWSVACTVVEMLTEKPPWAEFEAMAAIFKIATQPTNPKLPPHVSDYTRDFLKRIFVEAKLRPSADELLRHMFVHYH
Particulars: at 10 µM.

Assay [2] relates to Epidermal growth factor receptor (Homo sapiens), P00533 [UNDEFINED MUTATION]. Put plainly: Selectivity interaction (Ambit KINOMEscan and KiNATiv profiling in Jurkat cells) EUB0000090b EGFR. It counts as cell-based. The following applies: at 1 µM.
Chain of Epidermal growth factor receptor (Homo sapiens), P00533 [UNDEFINED MUTATION] (P00533 whole entry, looked up, change not shown): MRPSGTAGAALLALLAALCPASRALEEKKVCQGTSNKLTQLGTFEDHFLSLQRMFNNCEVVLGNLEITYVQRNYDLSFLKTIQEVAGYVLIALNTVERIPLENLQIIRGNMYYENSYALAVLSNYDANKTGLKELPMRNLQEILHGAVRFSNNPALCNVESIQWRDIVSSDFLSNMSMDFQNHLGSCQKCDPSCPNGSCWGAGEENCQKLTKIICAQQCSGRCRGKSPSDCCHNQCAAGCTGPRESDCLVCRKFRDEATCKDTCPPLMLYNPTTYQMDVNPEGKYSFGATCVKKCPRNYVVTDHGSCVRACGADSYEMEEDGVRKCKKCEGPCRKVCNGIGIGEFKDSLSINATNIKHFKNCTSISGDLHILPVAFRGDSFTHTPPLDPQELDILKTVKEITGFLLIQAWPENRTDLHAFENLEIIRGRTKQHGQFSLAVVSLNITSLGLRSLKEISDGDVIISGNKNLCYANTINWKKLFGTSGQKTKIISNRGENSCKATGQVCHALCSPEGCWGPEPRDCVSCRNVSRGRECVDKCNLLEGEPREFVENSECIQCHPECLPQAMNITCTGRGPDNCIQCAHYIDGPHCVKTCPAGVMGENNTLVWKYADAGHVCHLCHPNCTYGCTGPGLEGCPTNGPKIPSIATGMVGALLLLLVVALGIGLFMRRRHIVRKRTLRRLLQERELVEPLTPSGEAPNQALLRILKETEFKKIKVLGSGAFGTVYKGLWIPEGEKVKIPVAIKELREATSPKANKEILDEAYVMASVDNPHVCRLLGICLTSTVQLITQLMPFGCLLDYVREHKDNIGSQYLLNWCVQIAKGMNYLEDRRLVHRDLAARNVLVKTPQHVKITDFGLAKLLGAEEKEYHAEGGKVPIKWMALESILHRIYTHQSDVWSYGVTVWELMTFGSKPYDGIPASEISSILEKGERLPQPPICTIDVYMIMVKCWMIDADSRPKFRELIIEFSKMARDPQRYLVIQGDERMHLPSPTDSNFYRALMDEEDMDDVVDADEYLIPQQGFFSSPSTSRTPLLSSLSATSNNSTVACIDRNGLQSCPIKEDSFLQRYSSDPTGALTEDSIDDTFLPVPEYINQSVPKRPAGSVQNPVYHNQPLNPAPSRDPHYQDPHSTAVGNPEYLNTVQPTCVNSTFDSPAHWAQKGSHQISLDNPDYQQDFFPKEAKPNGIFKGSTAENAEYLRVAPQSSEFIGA
Assay [3] concerns the target T2, Serine/threonine-protein kinase Nek1 (Homo sapiens) (UniProt Q96PY6).
T2 sequence (whole entry): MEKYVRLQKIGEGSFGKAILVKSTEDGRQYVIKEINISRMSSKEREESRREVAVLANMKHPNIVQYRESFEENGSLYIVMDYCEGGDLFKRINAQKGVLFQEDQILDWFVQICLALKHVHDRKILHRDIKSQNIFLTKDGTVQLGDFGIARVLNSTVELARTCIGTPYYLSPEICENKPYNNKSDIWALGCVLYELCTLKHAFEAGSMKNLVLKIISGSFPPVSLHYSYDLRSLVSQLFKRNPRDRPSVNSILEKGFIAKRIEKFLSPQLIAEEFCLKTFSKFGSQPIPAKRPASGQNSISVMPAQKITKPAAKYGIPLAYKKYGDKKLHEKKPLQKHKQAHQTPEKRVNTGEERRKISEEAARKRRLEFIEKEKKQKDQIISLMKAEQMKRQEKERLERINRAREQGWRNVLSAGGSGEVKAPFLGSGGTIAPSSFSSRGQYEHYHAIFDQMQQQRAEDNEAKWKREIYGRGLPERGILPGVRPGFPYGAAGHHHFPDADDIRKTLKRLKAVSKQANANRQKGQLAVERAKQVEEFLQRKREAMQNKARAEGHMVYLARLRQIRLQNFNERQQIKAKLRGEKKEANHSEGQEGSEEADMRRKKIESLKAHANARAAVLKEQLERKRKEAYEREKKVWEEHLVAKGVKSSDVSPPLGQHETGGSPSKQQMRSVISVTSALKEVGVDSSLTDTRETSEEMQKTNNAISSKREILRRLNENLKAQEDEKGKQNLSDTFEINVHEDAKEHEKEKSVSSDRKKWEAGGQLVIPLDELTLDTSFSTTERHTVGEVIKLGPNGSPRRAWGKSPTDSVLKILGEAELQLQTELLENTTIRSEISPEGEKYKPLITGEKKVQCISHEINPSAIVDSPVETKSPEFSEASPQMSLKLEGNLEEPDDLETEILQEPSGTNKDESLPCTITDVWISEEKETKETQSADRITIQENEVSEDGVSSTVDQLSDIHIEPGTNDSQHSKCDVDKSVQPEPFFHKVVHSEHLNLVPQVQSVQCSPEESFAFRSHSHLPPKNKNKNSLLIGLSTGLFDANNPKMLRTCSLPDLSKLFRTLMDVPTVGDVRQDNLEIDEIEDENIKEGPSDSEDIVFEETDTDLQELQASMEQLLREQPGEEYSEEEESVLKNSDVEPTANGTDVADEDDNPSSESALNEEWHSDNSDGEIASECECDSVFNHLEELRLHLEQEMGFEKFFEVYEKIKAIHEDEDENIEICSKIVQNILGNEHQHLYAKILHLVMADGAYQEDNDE
Description: Selectivity interaction (Kinase panel (Eurofins)) EUB0001564a NEK1. Particulars: at 1 µM.

Assay [4] deals with T3, Ephrin type-A receptor 6 (Homo sapiens) (UniProt Q9UF33).
T3 sequence (whole entry): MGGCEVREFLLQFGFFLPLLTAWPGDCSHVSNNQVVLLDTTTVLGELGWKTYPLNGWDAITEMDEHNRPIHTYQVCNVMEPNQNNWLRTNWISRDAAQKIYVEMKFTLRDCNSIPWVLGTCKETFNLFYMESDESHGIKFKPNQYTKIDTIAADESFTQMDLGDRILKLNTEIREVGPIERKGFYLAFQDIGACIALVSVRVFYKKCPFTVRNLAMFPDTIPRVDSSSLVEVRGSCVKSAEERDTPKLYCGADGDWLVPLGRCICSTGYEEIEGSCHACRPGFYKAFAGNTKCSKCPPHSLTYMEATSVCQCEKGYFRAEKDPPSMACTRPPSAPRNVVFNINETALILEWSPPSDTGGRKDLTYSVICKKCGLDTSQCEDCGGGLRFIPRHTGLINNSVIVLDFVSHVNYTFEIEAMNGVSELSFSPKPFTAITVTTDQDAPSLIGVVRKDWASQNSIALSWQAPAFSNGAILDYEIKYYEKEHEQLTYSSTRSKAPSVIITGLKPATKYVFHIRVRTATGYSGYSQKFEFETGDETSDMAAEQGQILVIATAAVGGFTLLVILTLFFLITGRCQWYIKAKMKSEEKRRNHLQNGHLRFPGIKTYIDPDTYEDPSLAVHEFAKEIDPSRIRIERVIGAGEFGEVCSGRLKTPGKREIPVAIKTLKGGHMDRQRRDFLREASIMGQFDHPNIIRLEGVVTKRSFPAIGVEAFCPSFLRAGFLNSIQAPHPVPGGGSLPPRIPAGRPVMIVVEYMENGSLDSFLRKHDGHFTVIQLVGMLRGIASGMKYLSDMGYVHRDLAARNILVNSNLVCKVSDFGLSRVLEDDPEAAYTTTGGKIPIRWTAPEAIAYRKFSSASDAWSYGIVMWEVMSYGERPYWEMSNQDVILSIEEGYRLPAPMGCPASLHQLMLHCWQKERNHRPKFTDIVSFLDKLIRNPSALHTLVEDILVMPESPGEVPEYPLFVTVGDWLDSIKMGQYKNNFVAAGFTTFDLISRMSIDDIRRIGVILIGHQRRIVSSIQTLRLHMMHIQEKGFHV
Description: Selectivity interaction (LanthaScreen Eu Kinase Binding Assay) EUB0001632a EPHA6. The following applies: at 10 µM. For orientation: In TR-FRET formats the signal depends on donor and acceptor labels being close together.

Molecules are shown by their SMILES.

For the compound `Cc1cc([C@@H](C)Nc2ccccc2C(=O)O)c2nc(N3CCOCC3)cc(=O)n2c1` [AZD-6482], in assay [1], the % of control is 100%. As to `CN(C)C/C=C/C(=O)Nc1ccc(C(=O)N2CCCC(Nc3ncc(Cl)c(-c4c[nH]c5ccccc45)n3)C2)cc1` (centres undefined), the % of control in assay [2] came out at 80%. Turning to `CC[C@@H](Nc1c(C#N)c(-c2ccc(-c3cccc(C)c3F)cc2)nc2cnccc12)C(=O)O` [BAY-091], the % of inhibition in assay [3] stood at 24.4%.

Regarding `Cn1cc(-n2cnc3c(NCc4nc5cc(Cl)c(Cl)cc5[nH]4)nc(N4CCOCC4)nc32)cn1`, the % of inhibition in assay [4] is -24%.
